Earlier results, collected in patent publication US7470509B2, “Compositions and methods for the identification, assessment, prevention and therapy of ovarian cancer” (Millennium Pharmaceuticals, Inc., priority 2002, dated 2008).

System: tumor
Details: U.S. Pat. No. 5,840,929

CC(=O)O[C@@]12CO[C@@H]1C[C@H](O)[C@@]1(C)C(=O)[C@H](O)C3=C(C)[C@@H](OC(=O)[C@H](O)[C@@H](NC(=O)OC(C)(C)C)c4ccccc4)C[C@@](O)([C@@H](OC(=O)c4ccccc4)[C@H]21)C3(C)C [Taxotere, docetaxel]
anti-tumor activity in animal models: good anti-tumor activity
